Assay results: article PMC7382147, “An effective UFLC–MS/MS method used to study pharmacokinetics of major constituents of Fukeqianjin formula in rat plasma” (Chinese Medicine, 2020)

experiment: Freeze–thaw stability of QC samples (−20 °C, three times); type: physicochemical, rat; conditions: plasma QC, spiked 5 ng/mL, freeze (−20 °C) and thaw three times
Procedure: (§1) Aliquots of 100 μL plasma samples were mixed with 10 μL I.S. samples (1 μg/mL, in MeOH), then added with 500 μL ACN, respectively, and vortexed for 5 min, centrifugated at 10,000 rpm for 10 min, the supernatants were transferred into clean vials and dried in a vacuum centrifugal concentrator at 1200 rpm, 37 °C. After that, 100 μL ACN was added and ultrasonic (frequency 40 kHz, power 250 W) extracted for 5 min to dissolve the dry residue, vortexed for 1 min and centrifugated at 10,000 rpm for 5 min, 1 μL of each final supernatant was injected into UFLC–MS/MS for analysis.
(§2) Six replicates of low, medium and high concentrations of quality control (QC) samples were used to verify the stabilities under different conditions including: place at room temperature for 8 h, freeze (− 20 °C) and thaw for three times, and store at − 20 °C for 20 days.

Compound | Freeze–thaw stability Mean
COc1cc2c(cc1OC)-c1cc3ccc(OC)c(OC)c3c[n+]1CC2 [Analyte 11, palmatine] | 94.51%
COc1ccc2cc3[n+](cc2c1OC)CCc1cc2c(cc1-3)OCO2 [Analyte 13, berberine] | 97.72%

same assay, conditions: plasma QC, spiked 50 ng/mL, freeze (−20 °C) and thaw three times

Freeze–thaw stability Mean | Compound
118.81% | COc1ccc(-c2coc3cc(O[C@@H]4O[C@H](CO)[C@@H](O)[C@H](O)[C@H]4O)ccc3c2=O)cc1 [Analyte 10, ononin]
88.34% | O=C1C[C@@H](c2ccc(O)cc2)Oc2cc(O)cc(O)c21 [Analyte 14, naringenin]

same assay, conditions: plasma QC, spiked 100 ng/mL, freeze (−20 °C) and thaw three times

Compound | Freeze–thaw stability Mean
COc1cc2c(cc1OC)-c1cc3ccc(OC)c(OC)c3c[n+]1CC2 [Analyte 11, palmatine] | 98.74%
COc1ccc2cc3[n+](cc2c1OC)CCc1cc2c(cc1-3)OCO2 [Analyte 13, berberine] | 110.44%

same assay, conditions: plasma QC, spiked 200 ng/mL, freeze (−20 °C) and thaw three times

Compound | Freeze–thaw stability Mean
COc1ccc2cc3[n+](cc2c1OC)CCc1cc2c(cc1-3)OCO2 [Analyte 13, berberine] | 104.87%

same assay, conditions: plasma QC, spiked 250 ng/mL, freeze (−20 °C) and thaw three times

Freeze–thaw stability Mean | Compound
102.95% | COc1ccc(-c2coc3cc(O[C@@H]4O[C@H](CO)[C@@H](O)[C@H](O)[C@H]4O)ccc3c2=O)cc1 [Analyte 10, ononin]
116.86% | O=C1C[C@@H](c2ccc(O)cc2)Oc2cc(O)cc(O)c21 [Analyte 14, naringenin]

same assay, conditions: plasma QC, spiked 500 ng/mL, freeze (−20 °C) and thaw three times

Freeze–thaw stability Mean | Compound
81.68% | COc1ccc(-c2coc3cc(O[C@@H]4O[C@H](CO)[C@@H](O)[C@H](O)[C@H]4O)ccc3c2=O)cc1 [Analyte 10, ononin]
84.71% | O=C1C[C@@H](c2ccc(O)cc2)Oc2cc(O)cc(O)c21 [Analyte 14, naringenin]

experiment: Long-term stability of QC samples (−20 °C for 20 days); type: physicochemical, rat; conditions: plasma QC, spiked 5 ng/mL
Procedure: as §1, §2

Compound | Long-term stability Mean
COc1cc2c(cc1OC)-c1cc3ccc(OC)c(OC)c3c[n+]1CC2 [Analyte 11, palmatine] | 87.02%
COc1ccc2cc3[n+](cc2c1OC)CCc1cc2c(cc1-3)OCO2 [Analyte 13, berberine] | 102.75%

same assay, conditions: plasma QC, spiked 50 ng/mL

Long-term stability Mean | Compound
95.03% | COc1ccc(-c2coc3cc(O[C@@H]4O[C@H](CO)[C@@H](O)[C@H](O)[C@H]4O)ccc3c2=O)cc1 [Analyte 10, ononin]
91.66% | O=C1C[C@@H](c2ccc(O)cc2)Oc2cc(O)cc(O)c21 [Analyte 14, naringenin]

same assay, conditions: plasma QC, spiked 100 ng/mL

Compound | Long-term stability Mean
COc1cc2c(cc1OC)-c1cc3ccc(OC)c(OC)c3c[n+]1CC2 [Analyte 11, palmatine] | 101.38%
COc1ccc2cc3[n+](cc2c1OC)CCc1cc2c(cc1-3)OCO2 [Analyte 13, berberine] | 81.78%

same assay, conditions: plasma QC, spiked 200 ng/mL

Compound | Long-term stability Mean
COc1cc2c(cc1OC)-c1cc3ccc(OC)c(OC)c3c[n+]1CC2 [Analyte 11, palmatine] | 89.65%
COc1ccc2cc3[n+](cc2c1OC)CCc1cc2c(cc1-3)OCO2 [Analyte 13, berberine] | 114.48%

same assay, conditions: plasma QC, spiked 250 ng/mL

Long-term stability Mean | Compound
81.88% | COc1ccc(-c2coc3cc(O[C@@H]4O[C@H](CO)[C@@H](O)[C@H](O)[C@H]4O)ccc3c2=O)cc1 [Analyte 10, ononin]
103.10% | O=C1C[C@@H](c2ccc(O)cc2)Oc2cc(O)cc(O)c21 [Analyte 14, naringenin]

same assay, conditions: plasma QC, spiked 500 ng/mL

Long-term stability Mean | Compound
107.95% | COc1ccc(-c2coc3cc(O[C@@H]4O[C@H](CO)[C@@H](O)[C@H](O)[C@H]4O)ccc3c2=O)cc1 [Analyte 10, ononin]
99.51% | O=C1C[C@@H](c2ccc(O)cc2)Oc2cc(O)cc(O)c21 [Analyte 14, naringenin]

experiment: Pharmacokinetic study in rat plasma after oral administration of FKQJF extract (UFLC–MS/MS); type: in vivo, Sprague-Dawley (SD) rats; conditions: Sprague-Dawley, oral FKQJF extract, single dose 3.2 g/kg, mean ± SD
Procedure: as §1
An 8050 UFLC–MS/MS system equipped with LC-30A binary pump, a SIL-30AC autosampler, a SPD-M30A PDA detector, a CTO-20AC column oven, and a 8050 triple quadrupole mass spectrometer with an electrospray ionization source (ESI) was applied to detect and quantify FKQJF compounds in plasma samples. Data were acquired and processed with the software LabSolution (Ver. 5.6).
A Kinetex XB-C18 HPLC column (100 × 2.1 mm, 2.6 μm) linked with an equivalent guard column was used for chromatographic separation. The aqueous phase contained 0.2% formic acid was used as mobile phase A, and organic phase ACN as mobile phase B. The gradient elution method using in this program was: 3–5 min, 28–31% B; 5–7 min, 31–34% B; 7–9 min, 34–65% B; 9–10 min, 65–95% B; 10–11.5 min, 95% B. The flow rate of mobile phase, column temperature and autosampler temperature was 0.4 mL/min, 30 °C and 4 °C, respectively. The injection volume of each sample was set as 1 μL. The main MS spectrum parameters were set as follows: the flow rate of drying gas (N2) was 10.0 L/min; the atomized gas was 3.0 L/min and the heating gas flow rate was 10.0 L/min. The main temperatures of interface, desolvation and heat block was 300 °C, 250 °C and 400 °C, respectively. And, the interface and detector voltage were 3 kV and 1.8 kV.
Rats were divided into a blank group and a FKQJF administration group (6 rats for each), and fasted for 24 h. Each rat of the administration group was given FKQJF extract suspension at a single dose of 3.2 g FKQJF/kg body weight through oral administration in parallel. Blood samples (0.25 mL) were gathered from the orbital venous plexus of each rat, with FKQJF group gathered at 14 serial timepoints (6 rats for each) as 0.083 h, 0.16 h, 0.33 h, 0.5 h, 0.75 h, 1.0 h, 1.5 h, 2 h, 3 h, 4 h, 6 h, 8 h, 12 h and 24 h after drug administration. The blood samples were centrifugated at 6000g for 10 min to isolate plasma and stored at − 20 °C for further analysis.
Data were analyzed using the Drug and Statistics (DAS) Software version 2.0 (DAS 2.0, Mathematical Pharmacology Professional Committee of China, Shanghai, China). The non-compartmental mode was applied to obtain the following PK parameters: area under the plasma concentration–time curve from time zero to the time of last quantifiable concentration (AUC0→t) and area under the plasma concentration–time curve to time infinity (AUC0→∞), the elimination half-life (t1/2), mean retention time to last sampling time (MRT0→t) and mean retention time to infinity (MRT0→∞). The maximum plasma concentration (Cmax) and the time to maximum concentration (Tmax) were observed directly from the concentration–time (C–T) curves and measured data. All data are presented as mean ± SD.

AUC(0-inf) | AUC(0-t) | Cmax | half-life | Compound
0.375 ± 0.153 µg·h/mL | 0.37 ± 0.156 µg·h/mL | 0.192 ± 0.032 µg/mL | 1.64 ± 0.52 h | COc1ccc(-c2coc3cc(O[C@@H]4O[C@H](CO)[C@@H](O)[C@H](O)[C@H]4O)ccc3c2=O)cc1 [Analyte 10, ononin]
1.64 ± 0.155 µg·h/mL | 0.691 ± 0.0933 µg·h/mL | 0.134 ± 0.0318 µg/mL | 9.16 ± 2.09 h | COc1cc2c(cc1OC)-c1cc3ccc(OC)c(OC)c3c[n+]1CC2 [Analyte 11, palmatine]
0.206 ± 0.0587 µg·h/mL | 0.144 ± 0.0165 µg·h/mL | 0.0677 ± 0.0276 µg/mL | 12.1 ± 9.32 h | O=C1C[C@@H](c2ccc(O)cc2)Oc2cc(O)cc(O)c21 [Analyte 14, naringenin]

Compound | AUC(0-inf) | AUC(0-t) | Cmax | half-life
COc1ccc2cc3[n+](cc2c1OC)CCc1cc2c(cc1-3)OCO2 [Analyte 13, berberine] | 5.63 ± 2.43 µg·h/mL | 3.8 ± 0.171 µg·h/mL | 0.619 ± 0.0846 µg/mL | 38.8 ± 53.2 h

same assay, conditions: Sprague-Dawley, oral FKQJF extract, single dose 3.2 g/kg, mean ± SD, read-out: MRT0→t

MRT last | Compound
2.54 ± 1.12 h | COc1ccc(-c2coc3cc(O[C@@H]4O[C@H](CO)[C@@H](O)[C@H](O)[C@H]4O)ccc3c2=O)cc1 [Analyte 10, ononin]
11 ± 0.99 h | COc1cc2c(cc1OC)-c1cc3ccc(OC)c(OC)c3c[n+]1CC2 [Analyte 11, palmatine]
6.67 ± 1.42 h | O=C1C[C@@H](c2ccc(O)cc2)Oc2cc(O)cc(O)c21 [Analyte 14, naringenin]

Compound | MRT last
COc1ccc2cc3[n+](cc2c1OC)CCc1cc2c(cc1-3)OCO2 [Analyte 13, berberine] | 8.04 ± 0.88 h

same assay, conditions: Sprague-Dawley, oral FKQJF extract, single dose 3.2 g/kg, mean ± SD, read-out: MRT0→∞

MRT inf | Compound
3.13 ± 1.66 h | COc1ccc(-c2coc3cc(O[C@@H]4O[C@H](CO)[C@@H](O)[C@H](O)[C@H]4O)ccc3c2=O)cc1 [Analyte 10, ononin]
14.2 ± 8.89 h | COc1cc2c(cc1OC)-c1cc3ccc(OC)c(OC)c3c[n+]1CC2 [Analyte 11, palmatine]
17 ± 8.17 h | O=C1C[C@@H](c2ccc(O)cc2)Oc2cc(O)cc(O)c21 [Analyte 14, naringenin]

Compound | MRT inf
COc1ccc2cc3[n+](cc2c1OC)CCc1cc2c(cc1-3)OCO2 [Analyte 13, berberine] | 39 ± 46.5 h

same assay, conditions: Sprague-Dawley, oral FKQJF extract, single dose 3.2 g/kg, mean ± SD, read-out: Tmax

Tmax | Compound
1.33 ± 0.58 h | COc1ccc(-c2coc3cc(O[C@@H]4O[C@H](CO)[C@@H](O)[C@H](O)[C@H]4O)ccc3c2=O)cc1 [Analyte 10, ononin]
1.67 ± 0.29 h | COc1cc2c(cc1OC)-c1cc3ccc(OC)c(OC)c3c[n+]1CC2 [Analyte 11, palmatine]

Compound | Tmax
COc1ccc2cc3[n+](cc2c1OC)CCc1cc2c(cc1-3)OCO2 [Analyte 13, berberine] | 8 h

same assay, conditions: oral FKQJF extract 3.2 g/kg

Compound | shape of the plasma concentration–time curve
COc1ccc(-c2coc3cc(O[C@@H]4O[C@H](CO)[C@@H](O)[C@H](O)[C@H]4O)ccc3c2=O)cc1 [Analyte 10, ononin] | double-peaks
COc1ccc2cc3[n+](cc2c1OC)CCc1cc2c(cc1-3)OCO2 [Analyte 13, berberine] | double-peaks

same assay, conditions: oral FKQJF extract, single dose 3.2 g/kg, mean ± SD

Tmax | Compound
2.00 ± 0.00 h | O=C1C[C@@H](c2ccc(O)cc2)Oc2cc(O)cc(O)c21 [Analyte 14, naringenin]

experiment: Ordinary stability of QC samples (room temperature for 8 h); type: physicochemical, rat; conditions: plasma QC, spiked 5 ng/mL, room temperature 8 h
Procedure: as §1, §2

Compound | Ordinary stability Mean
COc1cc2c(cc1OC)-c1cc3ccc(OC)c(OC)c3c[n+]1CC2 [Analyte 11, palmatine] | 92.36%
COc1ccc2cc3[n+](cc2c1OC)CCc1cc2c(cc1-3)OCO2 [Analyte 13, berberine] | 84.57%

same assay, conditions: plasma QC, spiked 50 ng/mL, room temperature 8 h

Ordinary stability Mean | Compound
95.59% | COc1ccc(-c2coc3cc(O[C@@H]4O[C@H](CO)[C@@H](O)[C@H](O)[C@H]4O)ccc3c2=O)cc1 [Analyte 10, ononin]
80.39% | O=C1C[C@@H](c2ccc(O)cc2)Oc2cc(O)cc(O)c21 [Analyte 14, naringenin]

same assay, conditions: plasma QC, spiked 100 ng/mL, room temperature 8 h

Compound | Ordinary stability Mean
COc1cc2c(cc1OC)-c1cc3ccc(OC)c(OC)c3c[n+]1CC2 [Analyte 11, palmatine] | 81.64%
COc1ccc2cc3[n+](cc2c1OC)CCc1cc2c(cc1-3)OCO2 [Analyte 13, berberine] | 103.56%

same assay, conditions: plasma QC, spiked 200 ng/mL, room temperature 8 h

Compound | Ordinary stability Mean
COc1ccc2cc3[n+](cc2c1OC)CCc1cc2c(cc1-3)OCO2 [Analyte 13, berberine] | 113.97%

same assay, conditions: plasma QC, spiked 250 ng/mL, room temperature 8 h

Ordinary stability Mean | Compound
82.57% | COc1ccc(-c2coc3cc(O[C@@H]4O[C@H](CO)[C@@H](O)[C@H](O)[C@H]4O)ccc3c2=O)cc1 [Analyte 10, ononin]
92.68% | O=C1C[C@@H](c2ccc(O)cc2)Oc2cc(O)cc(O)c21 [Analyte 14, naringenin]

same assay, conditions: plasma QC, spiked 500 ng/mL, room temperature 8 h

Ordinary stability Mean | Compound
103.90% | COc1ccc(-c2coc3cc(O[C@@H]4O[C@H](CO)[C@@H](O)[C@H](O)[C@H]4O)ccc3c2=O)cc1 [Analyte 10, ononin]
101.11% | O=C1C[C@@H](c2ccc(O)cc2)Oc2cc(O)cc(O)c21 [Analyte 14, naringenin]
